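96-well plates; 48 h exposure; 5 concentrations. Endpoints by linear interpolation between flanking doses. Not reached: highest tested concentration assigned. GI50: concentration for 50% inhibition of growth. TGI marks complete inhibition of growth.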

What all share (assay): NCI tumour cell line growth inhibition, 48 h
Assay [1] has as its system OVCAR-3 ovarian.
The subject of assay [2] is UACC-62 melanoma.
Assay [3] relates to TK-10 renal.
The subject of assay [4] is K-562 leukemia.
Assay [5] concerns MDA-MB-231 breast.
For assay [6], the system named is T-47D breast.
For assay [7], the system named is OVCAR-4 ovarian.
The subject of assay [8] is PC-3 prostate.
The subject of assay [9] is OVCAR-8 ovarian.
In assay [10] the test system is NCI-H460 lung.

With `COc1ccc(C2SC(C)C(=O)N2NC(=O)C(O)c2ccccc2)cc1` (stereo not given), the GI50 in assay [1], in assay [2], in [3], in [4], in [5] and in assay [6] was above 100000 nM in each case. The GI50 in assay [7], in [8], in [9] and in assay [10] was above 100000 nM each time. The TGI in assay [1], in [2], in [3], in [4], in [5] and in assay [6] was above 100000 nM throughout. Further, the TGI in assay [7], in assay [8], in [9] and in assay [10] was above 100000 nM in each case.

With `CCN1CCN(Cc2ccc3cc(C(=O)Nc4cc(NC(=O)c5ccc6c(c5)OCCO6)ccc4F)ccc3n2)CC1`, the GI50 in assay [1] is 56.7 nM; in assay [2], 57.5 nM; in [3], 42.9 nM; in assay [4] it was 50.5 nM; in [5], 33.2 nM; in assay [6], 45.1 nM. Further, the GI50 in [7] was 77.2 nM; in assay [8], 59.3 nM; in assay [9] it was 57.1 nM; in assay [10], 37 nM. Also, the TGI in assay [1] was found to be 766 nM; in assay [2] it was 1190 nM; in assay [3], 4290 nM; in [4], 14500 nM; in assay [5] it was 569 nM; in [6] it was 23000 nM. For the same molecule, the TGI in [7] was determined as 1910 nM; in assay [8] it was 11600 nM; in assay [9], 12500 nM; in assay [10] it was 563 nM.

On to `Cc1cccc2c(=O)c3c(sc12)c(NCCN)nc1ccccc13`, for which the GI50 in assay [1] is 888 nM; in assay [2], 811 nM; in [3] it was 1150 nM; in assay [4] it was 827 nM; in assay [5] it was 664 nM; in assay [6] it was 685 nM. For the same molecule, the GI50 was 935 nM in [7], 717 nM in assay [8], 885 nM in [9] and 768 nM in assay [10]. For the same molecule, the TGI in assay [1] was 1790 nM; in assay [2], 1650 nM; in [3] it was 1970 nM; in assay [4], 1950 nM; in assay [5], 1410 nM; in assay [6] it was 1600 nM. Also, the TGI in assay [7] was 2160 nM; in assay [8] it was 1490 nM; in [9] it was 1980 nM; in [10], 1540 nM.

For the molecule `O=C1[C@H](c2ccccc2)C2c3ccccc3CCN12` (stereo not given in full), the GI50 in assay [1], in [2], in [3], in [4], in assay [5] and in assay [6] was above 100000 nM in each case. Further, the GI50 in [7], in assay [8], in [9] and in [10] was above 100000 nM in each case. The TGI in assay [1], in assay [2], in assay [3], in [4], in assay [5] and in assay [6] was above 100000 nM in each case. The TGI in [7], in assay [8], in [9] and in assay [10] was above 100000 nM throughout.

For the molecule `COc1ccc2c(c1)N(CCO)C1=C(C(=O)OC1)C2c1cccc(Br)c1` (stereo not given), the GI50 was 33.8 nM in assay [1]; 48 nM in [2]; 349 nM in assay [3]; 53.2 nM in [4]; 372 nM in assay [5]; 26100 nM in assay [6]. Besides, the GI50 in assay [7] was 123 nM; in assay [8], 61.8 nM; in assay [9], 140 nM; in assay [10] it was 47.7 nM. The TGI in assay [1] is 135 nM; in assay [2], 44500 nM; in [3], 83600 nM; in assay [4], above 67600 nM; in assay [5], 19400 nM; in assay [6], above 100000 nM. For the same molecule, the TGI in assay [7] was above 100000 nM; in [8], 54400 nM; in [9], 13900 nM; in assay [10], 5050 nM.

For `Cc1ccc(S(=O)(=O)N2C/C(=C\c3cc(F)cc(F)c3)C(=O)/C(=C/c3cc(F)cc(F)c3)C2)cc1`, the GI50 is 408 nM in [1]; 231 nM in [2]; 994 nM in assay [3]; 60.5 nM in assay [4]; 285 nM in [5]; 1770 nM in assay [6]. Further, the GI50 in assay [7] is 367 nM; in [8], 220 nM; in [9], 301 nM; in assay [10] it was 742 nM. Besides, the TGI was 1270 nM in assay [1]; 605 nM in [2]; 2990 nM in [3]; 1240 nM in [4]; 867 nM in assay [5]; 6590 nM in assay [6]. In addition, the TGI came to 3570 nM in assay [7], 612 nM in assay [8], 1770 nM in [9] and 2910 nM in assay [10].

For the molecule `NNc1nc(-c2ccccn2)nc2sc3c(c12)CCCCCC3`, the GI50 in assay [1] is 5310 nM; in assay [2] it was 5960 nM; in [3], 9160 nM; in [4], 3780 nM; in assay [5], 12700 nM; in [6], 5010 nM. Also, the GI50 is 10400 nM in assay [7], 3980 nM in assay [8], 4390 nM in assay [9] and 4220 nM in assay [10]. Moreover, the TGI in assay [1] is 93700 nM; in [2] it was 48800 nM; in assay [3] it was above 100000 nM; in assay [4], above 100000 nM; in [5], above 100000 nM; in [6], above 100000 nM. Besides, the TGI was above 100000 nM in assay [7], above 100000 nM in [8], above 100000 nM in assay [9] and 57500 nM in assay [10].

Source of the values: PubChem BioAssay (NCI).
